Data taken from ChEMBL document CHEMBL1142729 (J Med Chem, 2005).

Experiments:
[1] = molecular target: Carbonic anhydrase 2 (Homo sapiens, UniProt P00918); assay: Inhibitory constant value for Carbonic anhydrase II in human determined in pH-shift assay
[2] = Inhibition concentration for carbonic anhydrase I and carbonic anhydrase II in rat determined in CO2 hydration assay

Row | IC50 [2] [µM] | SMILES | IC50 [1] [µM]
1 | – | NS(=O)(=O)OCC1Oc2ccccc2O1 | 0.28
2 | 8.9 | CC1(C)O[C@@H]2[C@@H](CO[C@@]3(COS(N)(=O)=O)OC(C)(C)O[C@@H]23)O1 [TOPIRAMATE] | –
